ChEMBL document CHEMBL4402526, “Design and Synthesis of Fungal-Selective Resorcylate Aminopyrazole Hsp90 Inhibitors” (J Med Chem, 2020)
Activity calls are given as the source filed them. No rule for the calls is given here.

How the values were obtained:
Cryptococcus neoformans = assay: Antifungal activity against Cryptococcus neoformans H99 assessed as fungal growth inhibition at <= […] uM measured after 48 hrs by resazurin assay; assay type: functional, organism-based
Candida albicans = assay: Antifungal activity against Candida albicans clinical isolate 2 assessed as fungal growth inhibition at <= […] uM measured after 48 hrs by resazurin assay; assay type: functional, organism-based

SMILES: COc1ccc(Cn2nc(C)cc2Nc2cc(O)cc(O)c2C(=O)N2Cc3ccccc3C2)cc1
- Activity (Cryptococcus neoformans): Active
- Activity (Candida albicans): Active

SMILES: CCc1cc(Nc2cc(O)cc(O)c2C(=O)N2Cc3cn[nH]c3C2)n(Cc2ccc(OC)cc2)n1
- Activity (Cryptococcus neoformans): Active
- Activity (Candida albicans): Active

SMILES: COc1ccc(Cn2nc(C3CCCC3)cc2Nc2cc(O)cc(O)c2C(=O)N2Cc3cccnc3C2)cc1
- Activity (Cryptococcus neoformans): Active
- Activity (Candida albicans): Active

SMILES: Cn1nc(-c2ccccc2)cc1Nc1cc(O)cc(O)c1C(=O)N1Cc2cn[nH]c2C1
- Activity (Cryptococcus neoformans): Active
- Activity (Candida albicans): Active

SMILES: Cn1nccc1Nc1cc(O)cc(O)c1C(=O)N1Cc2ccccc2C1
- Activity (Cryptococcus neoformans): Active
- Activity (Candida albicans): Active

SMILES: Cn1nc(-c2ccc(C(F)(F)F)cc2)cc1Nc1cc(O)cc(O)c1C(=O)N1Cc2cccnc2C1
- Activity (Cryptococcus neoformans): Active
- Activity (Candida albicans): Active

SMILES: COc1ccc(Cn2ncc(C(C)C)c2Nc2cc(O)cc(O)c2C(=O)N2Cc3ccccc3C2)cc1
- Activity (Cryptococcus neoformans): Active
- Activity (Candida albicans): Active

SMILES: COc1ccc(-c2cc(Nc3cc(O)cc(O)c3C(=O)N3Cc4cccnc4C3)n(C)n2)cc1
- Activity (Cryptococcus neoformans): Active
- Activity (Candida albicans): Active

SMILES: O=C(c1c(O)cc(O)cc1Nc1ccnn1Cc1ccco1)N1Cc2ccccc2C1
- Activity (Cryptococcus neoformans): Active
- Activity (Candida albicans): Active

SMILES: Cn1nc(-c2cccc(C(F)(F)F)c2)cc1Nc1cc(O)cc(O)c1C(=O)N1Cc2ccccc2C1
- Activity (Cryptococcus neoformans): Active
- Activity (Candida albicans): Active

SMILES: COc1ccc(Cn2nc(C)cc2Nc2cc(O)cc(O)c2C(=O)N2Cc3cccc(F)c3C2)cc1
- Activity (Cryptococcus neoformans): Active
- Activity (Candida albicans): Active

SMILES: O=C(c1c(O)cc(O)cc1Nc1ccnn1CC1CCCCC1)N1Cc2cccnc2C1
- Activity (Cryptococcus neoformans): Active
- Activity (Candida albicans): Active

SMILES: O=C(c1c(O)cc(O)cc1Nc1cc(-c2ccccc2)nn1C1CCCCC1)N1Cc2cccnc2C1
- Activity (Cryptococcus neoformans): Active
- Activity (Candida albicans): Active

SMILES: Cc1ccccc1-c1cc(Nc2cc(O)cc(O)c2C(=O)N2Cc3cn[nH]c3C2)n(C)n1
- Activity (Cryptococcus neoformans): Active
- Activity (Candida albicans): Active

SMILES: O=C(c1c(O)cc(O)cc1Nc1ccnn1C1CCCCC1)N1Cc2cccnc2C1
- Activity (Cryptococcus neoformans): Active
- Activity (Candida albicans): Active

SMILES: Cn1nc(C2CCCCC2)cc1Nc1cc(O)cc(O)c1C(=O)N1Cc2cccnc2C1
- Activity (Cryptococcus neoformans): Active
- Activity (Candida albicans): Active

SMILES: CC(C)n1nccc1Nc1cc(O)cc(O)c1C(=O)N1Cc2ccccc2C1
- Activity (Cryptococcus neoformans): Active
- Activity (Candida albicans): Active

SMILES: O=C(c1c(O)cc(O)cc1Nc1ccnn1Cc1cccnc1)N1Cc2cccnc2C1
- Activity (Cryptococcus neoformans): Active
- Activity (Candida albicans): Active

SMILES: O=C(c1c(O)cc(O)cc1Nc1ccnn1Cc1ccccc1)N1Cc2cn[nH]c2C1
- Activity (Cryptococcus neoformans): Active
- Activity (Candida albicans): Active

SMILES: COc1ccc(Cn2nc(C)cc2Nc2cc(O)cc(O)c2C(=O)N2Cc3ccc(OCCN(C)C)cc3C2)cc1
- Activity (Cryptococcus neoformans): Active
- Activity (Candida albicans): Active

SMILES: Cn1nc(-c2ccccc2)cc1Nc1cc(O)cc(O)c1C(=O)N1Cc2ccccc2C1
- Activity (Cryptococcus neoformans): Active
- Activity (Candida albicans): Active

SMILES: Cc1cc(Nc2cc(O)cc(O)c2C(=O)N2Cc3ccccc3C2)n(Cc2ccccc2C)n1
- Activity (Cryptococcus neoformans): Active
- Activity (Candida albicans): Active

SMILES: O=C(c1c(O)cc(O)cc1Nc1ccnn1Cc1ccccc1)N1Cc2cccnc2C1
- Activity (Cryptococcus neoformans): Active
- Activity (Candida albicans): Active

SMILES: CCc1cc(Nc2cc(O)cc(O)c2C(=O)N2Cc3cccnc3C2)n(Cc2ccc(OC)cc2)n1
- Activity (Cryptococcus neoformans): Active
- Activity (Candida albicans): Active

SMILES: CC(C)(C)n1nc(-c2ccccc2)cc1Nc1cc(O)cc(O)c1C(=O)N1Cc2cn[nH]c2C1
- Activity (Cryptococcus neoformans): Active
- Activity (Candida albicans): Active

SMILES: Cc1ccc(-c2cc(Nc3cc(O)cc(O)c3C(=O)N3Cc4cccnc4C3)n(C)n2)cc1
- Activity (Cryptococcus neoformans): Active
- Activity (Candida albicans): Active

SMILES: O=C(c1c(O)cc(O)cc1Nc1ccnn1Cc1ccc(C(F)(F)F)cc1)N1Cc2cccnc2C1
- Activity (Cryptococcus neoformans): Active
- Activity (Candida albicans): Active

SMILES: Cc1cccc(-c2cc(Nc3cc(O)cc(O)c3C(=O)N3Cc4cccnc4C3)n(C)n2)c1
- Activity (Cryptococcus neoformans): Active
- Activity (Candida albicans): Active

SMILES: O=C(c1c(O)cc(O)cc1Nc1ccnn1Cc1ccccc1)N1Cc2ccccc2C1
- Activity (Cryptococcus neoformans): Active
- Activity (Candida albicans): Active

SMILES: COc1ccc(Cn2ncc(Cc3ccccc3)c2Nc2cc(O)cc(O)c2C(=O)N2Cc3ccccc3C2)cc1
- Activity (Cryptococcus neoformans): Active
- Activity (Candida albicans): Active

SMILES: Cn1nc(-c2cccc(C(F)(F)F)c2)cc1Nc1cc(O)cc(O)c1C(=O)N1Cc2cn[nH]c2C1
- Activity (Cryptococcus neoformans): Active
- Activity (Candida albicans): Active

SMILES: O=C(c1c(O)cc(O)cc1Nc1ccnn1Cc1ccc(C(F)(F)F)cc1)N1Cc2cn[nH]c2C1
- Activity (Cryptococcus neoformans): Active
- Activity (Candida albicans): Active

SMILES: Cn1nccc1Nc1cc(O)cc(O)c1C(=O)N1Cc2cccnc2C1
- Activity (Cryptococcus neoformans): Active
- Activity (Candida albicans): Active

SMILES: O=C(c1c(O)cc(O)cc1Nc1ccnn1-c1ccccc1)N1Cc2ccccc2C1
- Activity (Cryptococcus neoformans): Active
- Activity (Candida albicans): Active

SMILES: Cn1nccc1Nc1cc(O)cc(O)c1C(=O)N1Cc2cn[nH]c2C1
- Activity (Cryptococcus neoformans): Active
- Activity (Candida albicans): Active

SMILES: Cn1nc(-c2ccc(C(F)(F)F)cc2)cc1Nc1cc(O)cc(O)c1C(=O)N1Cc2cn[nH]c2C1
- Activity (Cryptococcus neoformans): Active
- Activity (Candida albicans): Active

SMILES: COc1ccc(Cn2nc(C)cc2Nc2cc(O)cc(O)c2C(=O)N2Cc3cn[nH]c3C2)cc1
- Activity (Cryptococcus neoformans): Active
- Activity (Candida albicans): Active

SMILES: COc1ccc(Cn2nccc2Nc2cc(O)cc(O)c2C(=O)N2Cc3ccccc3C2)cc1
- Activity (Cryptococcus neoformans): Active
- Activity (Candida albicans): Active

SMILES: Cc1ccc(-c2cc(Nc3cc(O)cc(O)c3C(=O)N3Cc4cn[nH]c4C3)n(C)n2)cc1
- Activity (Cryptococcus neoformans): Active
- Activity (Candida albicans): Active

SMILES: COc1ccc(Cn2nc(C)cc2Nc2cc(O)cc(O)c2C(=O)N2Cc3ccc(F)cc3C2)cc1
- Activity (Cryptococcus neoformans): Active
- Activity (Candida albicans): Active

SMILES: CC(C)c1cc(Nc2cc(O)cc(O)c2C(=O)N2Cc3cn[nH]c3C2)n(C)n1
- Activity (Cryptococcus neoformans): Active
- Activity (Candida albicans): Active

SMILES: COc1ccc(Cn2nc(-c3ccccc3)cc2Nc2cc(O)cc(O)c2C(=O)N2CCCC2)cc1
- Activity (Cryptococcus neoformans): Active
- Activity (Candida albicans): Active

SMILES: CC(C)n1nccc1Nc1cc(O)cc(O)c1C(=O)N1Cc2cccnc2C1
- Activity (Cryptococcus neoformans): Active
- Activity (Candida albicans): Active

SMILES: Cc1ccc(-c2cc(Nc3cc(O)cc(O)c3C(=O)N3Cc4ccccc4C3)n(C)n2)cc1
- Activity (Cryptococcus neoformans): Active
- Activity (Candida albicans): Active

SMILES: COc1ccc(Cn2nc(C3CC3)cc2Nc2cc(O)cc(O)c2C(=O)N2Cc3cccnc3C2)cc1
- Activity (Cryptococcus neoformans): Active
- Activity (Candida albicans): Active

SMILES: O=C(c1c(O)cc(O)cc1Nc1ccnn1C1CCCCC1)N1Cc2ccccc2C1
- Activity (Cryptococcus neoformans): Active
- Activity (Candida albicans): Active

SMILES: COc1ccc(Cn2nc(-c3ccccc3)cc2Nc2cc(O)cc(O)c2C(=O)N2Cc3ccc(F)cc3C2)cc1
- Activity (Cryptococcus neoformans): Active
- Activity (Candida albicans): Active

SMILES: COc1ccc(Cn2nc(-c3ccoc3)cc2Nc2cc(O)cc(O)c2C(=O)N2Cc3cccnc3C2)cc1
- Activity (Cryptococcus neoformans): Active
- Activity (Candida albicans): Active

SMILES: CC(C)c1ccc(Cn2nccc2Nc2cc(O)cc(O)c2C(=O)N2Cc3cccnc3C2)cc1
- Activity (Cryptococcus neoformans): Active
- Activity (Candida albicans): Active

SMILES: Cn1nc(-c2ccc(C(F)(F)F)cc2)cc1Nc1cc(O)cc(O)c1C(=O)N1Cc2ccccc2C1
- Activity (Cryptococcus neoformans): Active
- Activity (Candida albicans): Active

SMILES: O=C(c1c(O)cc(O)cc1Nc1ccnn1Cc1cccnc1)N1Cc2cn[nH]c2C1
- Activity (Cryptococcus neoformans): Active
- Activity (Candida albicans): Active

SMILES: COc1ccc(Cn2nc(C3CCCC3)cc2Nc2cc(O)cc(O)c2C(=O)N2Cc3cn[nH]c3C2)cc1
- Activity (Cryptococcus neoformans): Active
- Activity (Candida albicans): Active

SMILES: COc1ccc(Cn2nc(C3CC3)cc2Nc2cc(O)cc(O)c2C(=O)N2Cc3cn[nH]c3C2)cc1
- Activity (Cryptococcus neoformans): Active
- Activity (Candida albicans): Active

SMILES: O=C(c1c(O)cc(O)cc1Nc1ccnn1-c1ccccc1)N1Cc2cccnc2C1
- Activity (Cryptococcus neoformans): Active
- Activity (Candida albicans): Active

SMILES: Cn1nc(-c2ccc(C(C)(C)C)cc2)cc1Nc1cc(O)cc(O)c1C(=O)N1Cc2cccnc2C1
- Activity (Cryptococcus neoformans): Active
- Activity (Candida albicans): Active

SMILES: CC(C)Cn1nccc1Nc1cc(O)cc(O)c1C(=O)N1Cc2cccnc2C1
- Activity (Cryptococcus neoformans): Active
- Activity (Candida albicans): Active

SMILES: CC(C)c1cc(Nc2cc(O)cc(O)c2C(=O)N2Cc3cccnc3C2)n(C)n1
- Activity (Cryptococcus neoformans): Active
- Activity (Candida albicans): Active

SMILES: O=C(c1c(O)cc(O)cc1Nc1ccnn1C1CCCCC1)N1Cc2cn[nH]c2C1
- Activity (Cryptococcus neoformans): Active
- Activity (Candida albicans): Active

SMILES: Cc1cccc(-c2cc(Nc3cc(O)cc(O)c3C(=O)N3Cc4ccccc4C3)n(C)n2)c1
- Activity (Cryptococcus neoformans): Active
- Activity (Candida albicans): Active

SMILES: COc1ccc(Cn2ncc(-c3ccccc3)c2Nc2cc(O)cc(O)c2C(=O)N2Cc3ccccc3C2)cc1
- Activity (Cryptococcus neoformans): Active
- Activity (Candida albicans): Active

SMILES: COc1ccc(Cn2nc(C)cc2Nc2cc(O)cc(O)c2C(=O)N2Cc3ccc(N4CCN(C)CC4)cc3C2)cc1
- Activity (Cryptococcus neoformans): Active
- Activity (Candida albicans): Active

SMILES: COc1ccc(Cn2nc(-c3ccoc3)cc2Nc2cc(O)cc(O)c2C(=O)N2Cc3cn[nH]c3C2)cc1
- Activity (Cryptococcus neoformans): Active
- Activity (Candida albicans): Active

SMILES: Cn1nc(-c2cccc(C(F)(F)F)c2)cc1Nc1cc(O)cc(O)c1C(=O)N1Cc2cccnc2C1
- Activity (Cryptococcus neoformans): Active
- Activity (Candida albicans): Active

SMILES: COc1ccc(Cn2nc(C(C)(C)C)cc2Nc2cc(O)cc(O)c2C(=O)N2Cc3ccccc3C2)cc1
- Activity (Cryptococcus neoformans): Active
- Activity (Candida albicans): Active

SMILES: COc1ccc(Cn2nc(C)cc2Nc2cc(O)cc(O)c2C(=O)N2Cc3ccc(NC4CCN(C)CC4)cc3C2)cc1
- Activity (Cryptococcus neoformans): Active
- Activity (Candida albicans): Active

SMILES: O=C(c1c(O)cc(O)cc1Nc1ccnn1Cc1cccnc1)N1Cc2ccccc2C1
- Activity (Cryptococcus neoformans): Active
- Activity (Candida albicans): Active

SMILES: CC(C)(C)n1nc(-c2ccccc2)cc1Nc1cc(O)cc(O)c1C(=O)N1Cc2cccnc2C1
- Activity (Cryptococcus neoformans): Active
- Activity (Candida albicans): Active

SMILES: CC(C)n1nccc1Nc1cc(O)cc(O)c1C(=O)N1Cc2cn[nH]c2C1
- Activity (Cryptococcus neoformans): Active
- Activity (Candida albicans): Active

SMILES: CC(C)Cn1nccc1Nc1cc(O)cc(O)c1C(=O)N1Cc2ccccc2C1
- Activity (Cryptococcus neoformans): Active
- Activity (Candida albicans): Active
